Measurements reported in ChEMBL document CHEMBL5376003, “Structure-Activity Relationship of FL118 Platform Position 7 Versus Position 9-Derived Compounds and Their Mechanism of Action and Antitumor Activity” (J Med Chem, 2023).
The source made the active and inactive calls. The rule behind the calls is not given here.

Experiments:
[1] = system: HCT-116; assay: Induction of apoptosis in human HCT-116 cells assessed as downregulation of LIPE gene expression at 10 to 500 nM incubated for 6 to 48 hrs by RNA analysis; type: functional, cell-based; conditions: dose 10-500 nM, time 6-48 hrs
[2] = system: HCT-116; assay: Induction of apoptosis in human HCT-116 cells assessed as modulation of DDX54 mRNA expression at 10 to 500 nM incubated for 6 to 48 hrs by RNA analysis; type: functional, cell-based; conditions: dose 10-500 nM, time 6-48 hrs
[3] = system: HCT-116; assay: Induction of apoptosis in human HCT-116 cells assessed as downregulation of ADSL gene expression at 10 to 500 nM incubated for 6 to 48 hrs by RNA analysis; type: functional, cell-based; conditions: dose 10-500 nM, time 6-48 hrs
[4] = system: HCT-116; assay: Induction of apoptosis in human HCT-116 cells assessed as downregulation of NUP58 gene expression at 10 to 500 nM incubated for 6 to 48 hrs by RNA analysis; type: functional, cell-based; conditions: dose 10-500 nM, time 6-48 hrs
[5] = system: HCT-116; assay: Induction of apoptosis in human HCT-116 cells assessed as upregulation of ATF3 mRNA expression at 10 to 500 nM incubated for 6 to 48 hrs by RNA analysis; type: functional, cell-based; conditions: dose 10-500 nM, time 6-48 hrs
[6] = system: HCT-116; assay: Induction of apoptosis in human HCT-116 cells assessed as downregulation of ACACA gene expression at 10 to 500 nM incubated for 6 to 48 hrs by RNA analysis; type: functional, cell-based; conditions: dose 10-500 nM, time 6-48 hrs
[7] = system: HCT-116; assay: Induction of apoptosis in human HCT-116 cells assessed as upregulation of XPC mRNA expression at 10 to 500 nM incubated for 6 to 48 hrs by RNA analysis; type: functional, cell-based; conditions: dose 10-500 nM, time 6-48 hrs
[8] = system: HCT-116; assay: Induction of apoptosis in human HCT-116 cells assessed as downregulation of NUDT1 gene expression at 10 to 500 nM incubated for 6 to 48 hrs by RNA analysis; type: functional, cell-based; conditions: dose 10-500 nM, time 6-48 hrs
[9] = system: HCT-116; assay: Activation of innate immune response in human HCT-116 cells assessed as upregulation of IL-12RB2 gene expression at 10 to 500 nM incubated for 6 to 48 hrs by RNA analysis; type: functional, cell-based; conditions: dose 10-500 nM, time 6-48 hrs
[10] = system: HCT-116; assay: Induction of apoptosis in human HCT-116 cells assessed as upregulation of DDX5 mRNA expression at 500 nM incubated for 6 hrs by RNA analysis; type: functional, cell-based
[11] = system: HCT-116; assay: Induction of apoptosis in human HCT-116 cells assessed as downregulation of AMPD3 gene expression at 10 to 500 nM incubated for 6 to 48 hrs by RNA analysis; type: functional, cell-based; conditions: dose 10-500 nM, time 6-48 hrs
[12] = system: HCT-116; assay: Induction of apoptosis in human HCT-116 cells assessed as modulation of DDX19B mRNA expression at 10 to 500 nM incubated for 6 to 48 hrs by RNA analysis; type: functional, cell-based; conditions: dose 10-500 nM, time 6-48 hrs
[13] = system: HCT-116; assay: Induction of apoptosis in human HCT-116 cells assessed as downregulation of NUP133 gene expression at 10 to 500 nM incubated for 6 to 48 hrs by RNA analysis; type: functional, cell-based; conditions: dose 10-500 nM, time 6-48 hrs
[14] = system: HCT-116; assay: Induction of apoptosis in human HCT-116 cells assessed as downregulation of UMPS gene expression at 10 to 500 nM incubated for 6 to 48 hrs by RNA analysis; type: functional, cell-based; conditions: dose 10-500 nM, time 6-48 hrs
[15] = system: HCT-116; assay: Induction of apoptosis in human HCT-116 cells assessed as downregulation of NUP85 gene expression at 10 to 500 nM incubated for 6 to 48 hrs by RNA analysis; type: functional, cell-based; conditions: dose 10-500 nM, time 6-48 hrs
[16] = system: HCT-116; assay: Induction of apoptosis in human HCT-116 cells assessed as downregulation of GTF2H1 mRNA expression at 10 to 500 nM incubated for 6 to 48 hrs by RNA analysis; type: functional, cell-based; conditions: dose 10-500 nM, time 6-48 hrs
[17] = system: HCT-116; assay: Induction of apoptosis in human HCT-116 cells assessed as downregulation of NUP160 gene expression at 10 to 500 nM incubated for 6 to 48 hrs by RNA analysis; type: functional, cell-based; conditions: dose 10-500 nM, time 6-48 hrs
[18] = system: HCT-116; assay: Induction of apoptosis in human HCT-116 cells assessed as downregulation of PRKAR2B gene expression at 10 to 500 nM incubated for 6 to 48 hrs by RNA analysis; type: functional, cell-based; conditions: dose 10-500 nM, time 6-48 hrs
[19] = system: HCT-116; assay: Growth inhibition of human HCT-116 cells incubated for 48 hrs by MTT reagent based ELISA reader analysis; type: functional, cell-based; conditions: HCT-116, 48 h
[20] = system: HCT-116; assay: Induction of apoptosis in human HCT-116 cells assessed as upregulation of CDKN1A mRNA expression at 10 to 500 nM incubated for 6 to 48 hrs by RNA analysis; type: functional, cell-based; conditions: dose 10-500 nM, time 6-48 hrs
[21] = system: HCT-116; assay: Induction of apoptosis in human HCT-116 cells assessed as upregulation of ADCY6 mRNA expression at 10 to 500 nM incubated for 6 to 48 hrs by RNA analysis; type: functional, cell-based; conditions: dose 10-500 nM, time 6-48 hrs
[22] = system: HCT-116; assay: Induction of apoptosis in human HCT-116 cells assessed as downregulation of MCL-1 protein expression incubated for 48 hrs by Western blotting analysis; type: functional, cell-based
[23] = system: HCT-116; assay: Induction of apoptosis in human HCT-116 cells assessed as upregulation of GADD45A mRNA expression at 10 to 500 nM incubated for 6 to 48 hrs by RNA analysis; type: functional, cell-based; conditions: dose 10-500 nM, time 6-48 hrs
[24] = system: HCT-116; assay: Induction of apoptosis in human HCT-116 cells assessed as downregulation of SEH1L gene expression at 10 to 500 nM incubated for 6 to 48 hrs by RNA analysis; type: functional, cell-based; conditions: dose 10-500 nM, time 6-48 hrs
[25] = system: HCT-116; assay: Induction of apoptosis in human HCT-116 cells assessed as downregulation of TYMS gene expression at 10 to 500 nM incubated for 6 to 48 hrs by RNA analysis; type: functional, cell-based; conditions: dose 10-500 nM, time 6-48 hrs
[26] = system: PDX27454; assay: Antitumor activity against human PDX27454 cells xenografted in SCID mouse model assessed as reduction in tumor volume at 2 mg/kg,po administrated once per week for 3 weeks; type: functional, organism-based
[27] = system: HCT-116; assay: Induction of apoptosis in human HCT-116 cells assessed as downregulation of DCTPP1 gene expression at 10 to 500 nM incubated for 6 to 48 hrs by RNA analysis; type: functional, cell-based; conditions: dose 10-500 nM, time 6-48 hrs
[28] = system: HCT-116; assay: Inhibition of cell migration in human HCT-116 cells assessed as intercellular distance at 5 nM incubated for 24 hrs by inverted phase-contrast microscopic analysis (reference value: 1 +/- 0.2 millimeter); type: functional
[29] = system: HCT-116; assay: Induction of apoptosis in human HCT-116 cells assessed as increase in intracellular ROS level at 10 to 1000 nM incubated for 4 to 8 hrs by DCFH-DA staining based fluorescence microscopy; type: functional, cell-based; conditions: dose 10-1000 nM, time 4-8 hrs
[30] = system: PDX14244; assay: Antitumor activity against human PDX14244 cells xenografted in SCID mouse model assessed as reduction in tumor volume at 2 mg/kg,po administrated once per week for 3 weeks; type: functional, organism-based
[31] = system: HCT-116; assay: Induction of apoptosis in human HCT-116 cells assessed as downregulation of BIRC5 mRNA expression at 10 to 500 nM incubated for 6 to 48 hrs by RNA analysis; type: functional, cell-based; conditions: dose 10-500 nM, time 6-48 hrs
[32] = system: HCT-116; assay: Induction of apoptosis in human HCT-116 cells assessed as downregulation of NDC1 gene expression at 10 to 500 nM incubated for 6 to 48 hrs by RNA analysis; type: functional, cell-based; conditions: dose 10-500 nM, time 6-48 hrs
[33] = system: HCT-116; assay: Induction of apoptosis in human HCT-116 cells assessed as modulation of DDX49 mRNA expression at 10 to 500 nM incubated for 6 to 48 hrs by RNA analysis; type: functional, cell-based; conditions: dose 10-500 nM, time 6-48 hrs

Compound	Activity [1]	Activity [2]	Activity [3]	Activity [5]	Activity [6]	Activity [7]	Activity [8]	Activity [9]	Activity [10]	Activity [11]	Activity [12]	Activity [13]	Activity [14]	Activity [15]	Activity [16]	Activity [17]	Activity [18]	IC50 [19]	Activity [20]	Activity [22]	other results
CCc1ccc(-c2c3c(nc4cc5c(cc24)OCO5)-c2cc4c(c(=O)n2C3)COC(=O)[C@]4(O)CC)cc1	Active	Active	Active	Active	Active	Active	Active	Active	Active	Active	Active	Active	Active	Active	Active	Active	Active	55.6 nM	Active	Active	Activity [4]: Active; Activity [21]: Active; Activity [23]: Active; Activity [24]: Active; Activity [25]: Active; Activity [26]: Active; Activity [27]: Active; Activity [28]: 1.3 mm; Activity [29]: Active; Activity [30]: Active; Activity [31]: Active; Activity [32]: Active; Activity [33]: Active
CC[C@@]1(O)C(=O)OCc2c1cc1n(c2=O)Cc2c-1nc1cc3c(cc1c2-c1cc(OC)cc(OC)c1)OCO3	Active	Active	Active	Active	Active	Active	Active	Active	Active	Active	Active	Active	Active	Active	Active	Active	Active	99.4 nM	Active	Active	Activity [23]: Active; Activity [24]: Active; Activity [25]: Active; Activity [26]: Active; Activity [27]: Active; Activity [28]: 1.5 mm; Activity [29]: Active; Activity [30]: Active; Activity [31]: Active; Activity [32]: Active; Activity [33]: Active
